Series [1] concerns Influenza strain A549 A/WSN/33 (H1N1). Nature of the series: microbe, parasite or virus in culture. It is filed as cell-based. The note with it: Influenza A virus, A549, 20 h, A549 cells, influenza A/WSN/33 (H1N1), 20 hours incubation; read-out: A549_A(H1N1) EC50.
The nature of another series: in vitro. As to conditions: human, CC50, uninfected A549 cells, CellTiter-Glo. For orientation: In ATP-based viability assays light output follows the ATP content of the culture.

As to `O=C1c2c(O)c(=O)ccn2N2CN1C/C=C\COc1c(ccc(F)c1F)[C@@H]2c1ccccc1C1CC1` (single isomer, unassigned) [Compound 136B, (18*S,*Z)-18-(2-cyclopropylphenyl)-3,4-difluoro-12-hydroxy-6,9-dihydro-18H-10,17-methanobenzo[b]pyrido[1,2-f][1]oxa[5,6,9]triazacyclotridecine-11,13-dione], the 50% effective concentration (EC50) in series [1] is greater than 100 nM. Further, the CC50 in the series “in vitro” was greater than 200 nM.

For `O=C1c2c(O)c(=O)ccn2N2CN1CC/C=C/COc1cccc3c1[C@@H]2c1cccc(F)c1SC3` (single isomer, unassigned) [Compound 137A, (1*R,13*E)-25-fluoro-7-hydroxy-16-oxa-23-thia-2,3,10-triazahexacyclo[15.12.1.12,10.03,8.021,30.024,29]hentriaconta-4,7,13,17,19,21(30),24(29),25,27-nonaene-6,9-dione], the concentration giving a half-maximal response (EC50) in series [1] is greater than 100 nM. Besides, in the series “in vitro”, the CC50 was greater than 200 nM.

For the molecule `O=C1c2c(O)c(=O)ccn2N2CN1CC/C=C/COc1cccc3c1[C@H]2c1cccc(F)c1SC3` (single isomer, unassigned) [Compound 137B, (1*S,13*E)-25-fluoro-7-hydroxy-16-oxa-23-thia-2,3,10-triazahexacyclo[15.12.1.12,10.03,8.021,30.024,29]hentriaconta-4,7,13,17,19,21(30),24(29),25,27-nonaene-6,9-dione], in series [1], the EC50 worked out at 5.3 nM. This molecule also had a CC50 in “in vitro” greater than 200 nM.

For the molecule `C[C@H]1/C=C\COc2cccc3c2[C@@H](c2ccccc2SC3)N2CN1C(=O)c1c(O)c(=O)ccn12` (single isomer, unassigned) [Compound 138AA, (13*S,21a*S,Z)-16-hydroxy-13-methyl-6,10,13,21a-tetrahydro-7,8-(epiprop[1]en[1]yl[3]ylidene)-14,21-methanobenzo[6,7]thiepino[4,5-c]pyrido[1,2-f][1]oxa[5,6,9]triazacyclotridecine-15,17-dione], the EC50 in series [1] turned out to be 0.8 nM. The cytotoxic concentration (CC50) in the series “in vitro” was greater than 50 nM.

As for `C[C@@H]1/C=C\COc2cccc3c2[C@@H](c2ccccc2SC3)N2CN1C(=O)c1c(O)c(=O)ccn12` (single isomer, unassigned) [Compound 138AB, (13*R,21a*S,Z)-16-hydroxy-13-methyl-6,10,13,21a-tetrahydro-7,8-(epiprop[1]en[1]yl[3]ylidene)-14,21-methanobenzo[6,7]thiepino[4,5-c]pyrido[1,2-f][1]oxa[5,6,9]triazacyclotridecine-15,17-dione], the EC50 in series [1] was 1.5 nM. In the series “in vitro”, this molecule had a CC50 greater than 50 nM.

On to `C[C@@H]1/C=C\COc2cccc3c2[C@H](c2ccccc2SC3)N2CN1C(=O)c1c(O)c(=O)ccn12` (single isomer, unassigned) [Compound 138BB, (13*R,21a*R,Z)-16-hydroxy-13-methyl-6,10,13,21a-tetrahydro-7,8-(epiprop[1]en[1]yl[3]ylidene)-14,21-methanobenzo[6,7]thiepino[4,5-c]pyrido[1,2-f][1]oxa[5,6,9]triazacyclotridecine-15,17-dione], for which the EC50 in series [1] is greater than 100 nM. In the series “in vitro”, this molecule yielded a cytotoxic concentration (CC50) greater than 200 nM.

Turning to `C[C@@H]1/C=C/COc2cccc3c2[C@H](c2ccccc2SC3)N2CN1C(=O)c1c(O)c(=O)ccn12` (single isomer, unassigned) [Compound 138C, (9*R,17a*R,E)-12-hydroxy-9-methyl-2,6,9,17a-tetrahydro-3,4-(epiprop[1]en[1]yl[3]ylidene)-10,17-methanobenzo[6,7]thiepino[4,5-c]pyrido[1,2-f][1]oxa[5,6,9]triazacyclotridecine-11,13-dione], the EC50 in series [1] is greater than 100 nM. The CC50 in the series “in vitro” is greater than 200 nM.

On to `C[C@H]1/C=C/COc2cccc3c2[C@@H](c2ccccc2SC3)N2CN1C(=O)c1c(O)c(=O)ccn12` (single isomer, unassigned) [Compound 138D, (9*S,17a*S,E)-12-hydroxy-9-methyl-2,6,9,17a-tetrahydro-3,4-(epiprop[1]en[1]yl[3]ylidene)-10,17-methanobenzo[6,7]thiepino[4,5-c]pyrido[1,2-f][1]oxa[5,6,9]triazacyclotridecine-11,13-dione], for which the EC50 in series [1] stood at 0.9 nM. The cytotoxic concentration (CC50) in the series “in vitro” was greater than 200 nM.

On to `O=C1c2c(O)c(=O)ccn2N2CN1C[C@H]1C[C@@H]1COc1c(ccc(F)c1F)[C@@H]2c1ccccc1` (single isomer, unassigned) [Compound 139AA, (1a*S,8*S,17a*S)-4,5-difluoro-14-hydroxy-8-phenyl-1a,2,17,17a-tetrahydro-1H,8H-9,16-methanobenzo[b]cyclopropa[k]pyrido[1,2-f][1]oxa[5,6,9]triazacyclotridecine-13,15-dione], for which, in series [1], the EC50 came out at 8320 nM. The molecule also registered a cytotoxic concentration (CC50) in the series “in vitro” of 26900 nM.

Regarding `O=C1c2c(O)c(=O)ccn2N2CN1C[C@@H]1C[C@H]1COc1c(ccc(F)c1F)[C@@H]2c1ccccc1` (single isomer, unassigned) [Compound 139AB, (1a*R,8*S,17a*R)-4,5-difluoro-14-hydroxy-8-phenyl-1a,2,17,17a-tetrahydro-1H,8H-9,16-methanobenzo[b]cyclopropa[k]pyrido[1,2-f][1]oxa[5,6,9]triazacyclotridecine-13,15-dione], in series [1], the 50% effective concentration (EC50) turned out to be 4890 nM. For the same molecule, the CC50 in the series “in vitro” stood at 35900 nM.

As for `O=C1c2c(O)c(=O)ccn2N2CN1C[C@H]1C[C@@H]1COc1c(ccc(F)c1F)[C@H]2c1ccccc1` (single isomer, unassigned) [Compound 139BA, (1a*S,8*R,17a*S)-4,5-difluoro-14-hydroxy-8-phenyl-1a,2,17,17a-tetrahydro-1H,8H-9,16-methanobenzo[b]cyclopropa[k]pyrido[1,2-f][1]oxa[5,6,9]triazacyclotridecine-13,15-dione], in series [1], the half-maximal effective concentration (EC50) stood at 44.6 nM. In addition, in the series “in vitro”, the CC50 is greater than 100 nM.

For the molecule `O=C1c2c(O)c(=O)ccn2N2CN1C[C@@H]1C[C@H]1COc1c(ccc(F)c1F)[C@H]2c1ccccc1` (single isomer, unassigned) [Compound 139BB, (1a*R,8*R,17a*R)-4,5-difluoro-14-hydroxy-8-phenyl-1a,2,17,17a-tetrahydro-1H,8H-9,16-methanobenzo[b]cyclopropa[k]pyrido[1,2-f][1]oxa[5,6,9]triazacyclotridecine-13,15-dione], in series [1], the concentration for a half-maximal effect (EC50) is greater than 25 nM. In the series “in vitro”, this molecule yielded a cytotoxic concentration (CC50) greater than 50 nM.

In the case of `O=C1c2c(O)c(=O)ccn2N2CN1C/C=C/COc1cc(F)c(F)c3c1[C@@H]2c1ccccc1SC3` (single isomer, unassigned) [Compound 140A, (17a*R,*E)-24,25-difluoro-12-hydroxy-2,6,9,17a-tetrahydro-3,4-(epiprop[1]en[1]yl[3]ylidene)-10,17-methanobenzo[6,7]thiepino[4,5-c]pyrido[1,2-f][1]oxa[5,6,9]triazacyclotridecine-11,13-dione], the concentration giving a half-maximal response (EC50) in series [1] is 96.3 nM. The same molecule gave a CC50 in the series “in vitro” of 9960 nM.

For the molecule `O=C1c2c(O)c(=O)ccn2N2CN1C/C=C/COc1cc(F)c(F)c3c1[C@H]2c1ccccc1SC3` (single isomer, unassigned) [Compound 140B, (17a*S,*E)-24,25-difluoro-12-hydroxy-2,6,9,17a-tetrahydro-3,4-(epiprop[1]en[1]yl[3]ylidene)-10,17-methanobenzo[6,7]thiepino[4,5-c]pyrido[1,2-f][1]oxa[5,6,9]triazacyclotridecine-11,13-dione], the EC50 in series [1] is 0.3 nM. Further, the CC50 in “in vitro” is greater than 50 nM.

For orientation: EC50 means the concentration at which the effect is half-maximal. The CC50 is the concentration that lowers cell viability or growth by half.
